{"source": "patent US20030215397A1", "about": "“Method of treatment of skin diseases related to microbial antigens in the skin” (priority 2002, published 2003)", "key": {"psoriatic lesion": {"test_system": "psoriatic lesion", "assay": "Topical treatment of a psoriatic lesion in a patient, appearance of the lesion", "type": "in vivo, human", "settings": "person with severe psoriasis; pump spray with 40% by weight isopropyl myristate in alcohol carrier, on one lesion twice a day for two weeks", "protocol": "(§1) A person, suffering from severe psoriasis came for treatment. Their psoriasis had become severe at a time about 20 years earlier when they had recurring sore throats and tonsilitis. Their sore throats had ceased, but their psoriasis persisted. A blood sample was taken to measure […] antibody level to Dnase-B, a streptococcal exoenzyme; It was determined that they were a streptococcal carrier. A 4 mm punch biopsy was taken at the same time from a psoriatic plaque on their posterior thigh. The biopsy was first exposed to an antibody to Streptozyme®, and stained using the LSAB test.\nThe patient was provided with a pump spray bottle containing 40% by weight of isopropyl myristate in an alcohol carrier, and instructed to spray the liquid on one particular lesion twice a day for two weeks. […] That site was biopsied and given the LSAB test, as before. The stain was negative, indicating the cleansing of the streptococcal antigen from the skin that had been treated with the 40% isopropyl myristate spray, and it was accompanied by a clearing of the lesion.\nThe composition in each case is liberally applied and the patient otherwise is permitted to carry out the usual hygiene, showering or bathing. […]"}, "[1]": {"test_system": "streptococcal antigen (Dnase-B) in the skin", "assay": "LSAB stain (antibody to Streptozyme) of a biopsy from the treated psoriatic lesion site", "type": "in vivo, streptococci", "settings": "person with severe psoriasis; pump spray with 40% by weight isopropyl myristate in alcohol carrier, on one lesion twice a day for two weeks; stain positive before treatment", "protocol": "Anti-body levels of many such patients, to streptococcal exoenzymes, deoxyribonuclease B, hyaluronidase, streptolysin O, and Streptozyme (a commercial product made from streptococci and containing Dnase-B as one of its constituents., a registered trademark of Carter-Wallace, Inc. and available from Wampole Labs, of Cranbury, N.J.), when measured will be found to be elevated prior to the treatment in accordance with this invention. The presence of these antigens are tested for by using a primary rabbit polyclonal antibody to, e.g., Streptozyme® with a linked streptavidin biotin alkaline phosphatase (“LSAB”) amplification stain, available from Dako, of Carpinteria, Calif. A prominent red stain on the biopsied skin indicates the presence of the antigens.\nas §1, with “test. […]” for “test.”"}}}
{"smiles": "CCCCCCCCCCCCCC(=O)OC(C)C", "note": "[isopropyl myristate]", "values": [{"measurement": "clearing of the sprayed lesion", "setting": "psoriatic lesion", "value": "substantially clear of the disease"}, {"measurement": "LSAB stain for streptococcal antigen in the biopsied treated site", "setting": "[1]", "value": "negative"}]}
